Results published in publication PMC5061557 (Structure (London, England : 1993), 2016).

Legend:
WTHslU = WTHslU (Escherichia coli, UniProt P0A6H5); assay: NADH-coupled ATPase assay; assay type: biochemical; conditions: 5 mM ATP, pH 7.5, 20 mM MgCl2, 37 °C, without HslV
crystal structure = target: the molecule itself; assay: crystal structure

Chain of WTHslU (P0A6H5 whole entry): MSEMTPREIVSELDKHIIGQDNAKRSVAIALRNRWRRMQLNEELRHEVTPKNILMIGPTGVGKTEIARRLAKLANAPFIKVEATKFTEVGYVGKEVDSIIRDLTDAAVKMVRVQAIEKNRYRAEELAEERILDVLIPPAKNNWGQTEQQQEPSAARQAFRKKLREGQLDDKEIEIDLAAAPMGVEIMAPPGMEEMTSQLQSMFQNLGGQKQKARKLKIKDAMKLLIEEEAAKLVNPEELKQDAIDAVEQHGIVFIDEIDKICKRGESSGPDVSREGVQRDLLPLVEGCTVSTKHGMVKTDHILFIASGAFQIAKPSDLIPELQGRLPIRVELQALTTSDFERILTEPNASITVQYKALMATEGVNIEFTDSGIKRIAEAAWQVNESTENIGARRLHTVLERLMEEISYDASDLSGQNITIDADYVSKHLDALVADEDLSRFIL

## Nc1ncnc2c1ncn2[C@@H]1O[C@H](COP(=O)(O)OP(=O)(O)OP(=O)(O)O)[C@@H](O)[C@H]1O [ATP]
WTHslU
  NADH-coupled ATPase assay: assayed rates of ATP hydrolysis for this enzyme and wild type

B1: E. coli L199Q HslU mutant with an N-terminal H6 tag (enzyme, UniProt P0A6H5 1-443, looked up)
chain: MSEMTPREIVSELDKHIIGQDNAKRSVAIALRNRWRRMQLNEELRHEVTPKNILMIGPTGVGKTEIARRLAKLANAPFIKVEATKFTEVGYVGKEVDSIIRDLTDAAVKMVRVQAIEKNRYRAEELAEERILDVLIPPAKNNWGQTEQQQEPSAARQAFRKKLREGQLDDKEIEIDLAAAPMGVEIMAPPGMEEMTSQQQSMFQNLGGQKQKARKLKIKDAMKLLIEEEAAKLVNPEELKQDAIDAVEQHGIVFIDEIDKICKRGESSGPDVSREGVQRDLLPLVEGCTVSTKHGMVKTDHILFIASGAFQIAKPSDLIPELQGRLPIRVELQALTTSDFERILTEPNASITVQYKALMATEGVNIEFTDSGIKRIAEAAWQVNESTENIGARRLHTVLERLMEEISYDASDLSGQNITIDADYVSKHLDALVADEDLSRFIL
Crystal structure
  stoichiometry N: 6
